Experimental data as given in patent US20250154134A1, “COMPOUND AS FAK INHIBITOR AND USE THEREOF” (WIGEN BIOMEDICINE TECHNOLOGY (SHANGHAI) CO., LTD., priority 2022, published 2025).

Legend:
FAK recombinant protein = FAK recombinant protein (Homo sapiens (Human), UniProt Q05397); assay: Inhibitory activity against FAK enzyme (HTRF, TK substrate); type: biochemical
Experimental: A compound serially diluted with DMSO was mixed with a FAK recombinant protein. After the mixture was left to stand at room temperature for 10 min, a biotin-labeled TK substrate (TK) and ATP were added. […] The inhibition percentage and IC50 of the compound were calculated compared to the DMSO control group.

PC3 cells [1] = assay: PC3 cell proliferation, 3D activity assay (3D culture, 14 days); type: cell-based, human; settings: Homo sapiens, PC-3, 336 h, read-out: 3D inhibitory activity against PC3 cells IC50
PC3 cells [2] = assay: PC3 cell proliferation, 2D activity assay (Cell Titer-Lumi, 72 h); type: cell-based, human; settings: Homo sapiens, PC-3, read-out: 2D inhibitory activity against PC3 cells IC50

Chain of FAK recombinant protein (Q05397 whole entry): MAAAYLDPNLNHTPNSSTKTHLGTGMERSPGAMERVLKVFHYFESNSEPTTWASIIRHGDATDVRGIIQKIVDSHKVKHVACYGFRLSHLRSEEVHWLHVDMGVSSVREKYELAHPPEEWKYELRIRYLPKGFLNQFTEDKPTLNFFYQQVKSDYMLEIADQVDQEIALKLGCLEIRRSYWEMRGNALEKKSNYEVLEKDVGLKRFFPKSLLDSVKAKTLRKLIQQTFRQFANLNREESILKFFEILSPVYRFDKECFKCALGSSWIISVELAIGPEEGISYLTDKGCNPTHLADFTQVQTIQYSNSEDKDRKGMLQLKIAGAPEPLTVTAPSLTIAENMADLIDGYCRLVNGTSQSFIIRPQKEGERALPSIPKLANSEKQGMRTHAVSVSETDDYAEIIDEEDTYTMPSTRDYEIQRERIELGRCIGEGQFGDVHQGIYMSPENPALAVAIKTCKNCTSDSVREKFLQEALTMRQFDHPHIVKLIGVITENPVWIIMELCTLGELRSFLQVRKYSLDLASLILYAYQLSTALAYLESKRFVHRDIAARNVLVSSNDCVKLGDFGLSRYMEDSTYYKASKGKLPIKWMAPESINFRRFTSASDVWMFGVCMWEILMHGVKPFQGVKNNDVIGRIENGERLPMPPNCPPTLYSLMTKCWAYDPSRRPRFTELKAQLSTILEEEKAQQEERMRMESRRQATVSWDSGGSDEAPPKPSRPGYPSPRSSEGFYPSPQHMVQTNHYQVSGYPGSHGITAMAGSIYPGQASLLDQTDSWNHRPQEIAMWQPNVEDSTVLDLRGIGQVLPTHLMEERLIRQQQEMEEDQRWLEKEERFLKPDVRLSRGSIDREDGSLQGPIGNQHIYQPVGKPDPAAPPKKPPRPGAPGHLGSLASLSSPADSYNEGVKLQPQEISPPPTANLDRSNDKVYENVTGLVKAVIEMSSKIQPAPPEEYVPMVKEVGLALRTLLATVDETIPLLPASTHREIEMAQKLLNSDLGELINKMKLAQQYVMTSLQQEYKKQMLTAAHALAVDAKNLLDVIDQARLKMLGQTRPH

Row | Compound | IC50 (FAK recombinant protein) [nM] | IC50 (PC3 cells [1]) [nM] | IC50 (PC3 cells [2]) [nM]
1 | COc1cc(C(=O)NC2CC3(CCN(C)CC3)C2)ccc1Nc1ncc(Cl)c(Oc2cccc3c2C(=O)N(C)C32CC2)n1 [Compound 133, 4-((5-chloro-4-((2′-methyl-3′-oxospiro[cyclopropane-1,1′-isoindolin]-4′-yl)oxy)pyrimidin-2-yl)amino)-3-methoxy-N-(7-methyl-7-azaspiro[3.5]nonan-2-yl)benzamide] | < 20 | 5 to 50 | > 2000
2 | COc1cc(C2CCN(C)CC2)c(F)cc1Nc1ncc(Cl)c(Oc2cccc3c2C(=O)N(C)C32CC2)n1 [Compound 134, 4′-((5-chloro-2-((5-fluoro-2-methoxy-4-(1-methylpiperidin-4-yl)phenyl)amino)pyrimidin-4-yl)oxy)-2′-methylspiro[cyclopropane-1,1′-isoindolin]-3′-one] | < 20 | < 5 | > 2000
3 | COc1cc(C2CCN(C)CC2)ccc1Nc1ncc(Cl)c(Oc2cccc3c2C(=O)N(C)C32CC2)n1 [Compound 135, 4′-((5-chloro-2-((2-methoxy-4-(1-methylpiperidin-4-yl)phenyl)amino)pyrimidin-4-yl)oxy)-2′-methylspiro[cyclopropane-1,1′-isoindolin]-3′-one] | < 20 | < 5 | > 2000
4 | COc1cc(N2CCC(N3CCN(C)CC3)CC2)c(F)cc1Nc1ncc(Cl)c(Oc2cccc3c2C(=O)N(C)C32CC2)n1 [Compound 138] | < 20 | < 5 | > 2000
5 | COc1cc(N2CCN(C)CC2)c(F)cc1Nc1ncc(Cl)c(Oc2cccc3c2C(=O)N(C)C32CC2)n1 [Compound 140] | < 20 | 5 to 50 | > 2000
6 | COCCN1CCN(c2ccc(Nc3ncc(Cl)c(Oc4cccc5c4C(=O)N(C)C54CC4)n3)c(OC)c2)CC1 [Compound 142] | < 20 | < 5 | > 2000
7 | COCCN1CCN(c2cc(OC)c(Nc3ncc(Cl)c(Oc4cccc5c4C(=O)N(C)C54CC4)n3)cc2F)CC1 [Compound 143] | < 20 | < 5 | > 2000
8 | COc1cc(N2CCN(CC(=O)N(C)C)CC2)ccc1Nc1ncc(Cl)c(Oc2cccc3c2C(=O)N(C)C32CC2)n1 [Compound 144] | < 20 | < 5 | > 2000
9 | COc1cc(N2CC3(CN(C)C3)C2)c(F)cc1Nc1ncc(Cl)c(Oc2cccc3c2C(=O)N(C)C32CC2)n1 [Compound 145] | < 20 | 5 to 50 | > 2000
10 | COc1cc(N2CC3(CN(C)C3)C2)ccc1Nc1ncc(Cl)c(Oc2cccc3c2C(=O)N(C)C32CC2)n1 [Compound 146] | < 20 | 5 to 50 | > 2000
11 | COc1cc(N2CCC3(CCN(C)CC3)CC2)ccc1Nc1ncc(Cl)c(Oc2cccc3c2C(=O)N(C)C32CC2)n1 [Compound 147] | < 20 | < 5 | > 2000
12 | COc1cc(N2CCC3(CC2)CN(C)C3)c(F)cc1Nc1ncc(Cl)c(Oc2cccc3c2C(=O)N(C)C32CC2)n1 [Compound 148] | < 20 | < 5 | > 2000
13 | COc1cc(N2CCC3(CC2)CN(C)C3)ccc1Nc1ncc(Cl)c(Oc2cccc3c2C(=O)N(C)C32CC2)n1 [Compound 149] | < 20 | < 5 | > 2000
14 | COc1cc(N2CCC3(CCN(C)C3)C2)c(F)cc1Nc1ncc(Cl)c(Oc2cccc3c2C(=O)N(C)C32CC2)n1 (stereo not drawn) [Compound 150] | < 20 | < 5 | > 2000
15 | COc1cc(N2CCC3(CCN(C)C3)C2)ccc1Nc1ncc(Cl)c(Oc2cccc3c2C(=O)N(C)C32CC2)n1 (stereo not drawn) [Compound 151] | < 20 | < 5 | > 2000
16 | COc1cc(N2CCC(N(C)C)CC2)c(F)cc1Nc1ncc(Cl)c(Oc2cccc3c2C(=O)N(C)C32CC2)n1 [Compound 152] | < 20 | 5 to 50 | > 2000
17 | COc1cc(CN2CCN(C)CC2)ccc1Nc1ncc(Cl)c(Oc2cccc3c2C(=O)N(C)C32CC2)n1 [Compound 153, 4′-((5-chloro-2-((2-methoxy-4-((4-methylpiperazin-1-yl)methyl)phenyl)amino)pyrimidin-4-yl)oxy)-2′-methylspiro[cyclopropane-1,1′-isoindolin]-3′-one] | < 20 | < 5 | > 2000
18 | COc1cc(CNC2CCN(C)CC2)ccc1Nc1ncc(Cl)c(Oc2cccc3c2C(=O)N(C)C32CC2)n1 [Compound 155] | < 20 | 5 to 50 | > 2000
19 | COc1cc(CN(C)C2CCN(C)CC2)c(F)cc1Nc1ncc(Cl)c(Oc2cccc3c2C(=O)N(C)C32CC2)n1 [Compound 156] | < 20 | 5 to 50 | > 2000
20 | COc1cc(N2CC(N3CCN(C)CC3)C2)ccc1Nc1ncc(Cl)c(Oc2cccc3c2C(=O)N(C)C32CC2)n1 [Compound 157, 4′-((5-chloro-2-((2-methoxy-4-(3-(4-methylpiperazin-1-yl)azetidin-1-yl)phenyl)amino)pyrimidin-4-yl)oxy)-2′-methylspiro[cyclopropane-1,1′-isoindolin]-3′-one] | < 20 | < 5 | > 2000
21 | COc1cc(N2CC(N3CC(N(C)C)C3)C2)ccc1Nc1ncc(Cl)c(Oc2cccc3c2C(=O)N(C)C32CC2)n1 [Compound 158] | < 20 | 5 to 50 | > 2000

Row | Compound | IC50 (FAK recombinant protein) [nM] | IC50 (PC3 cells [1]) [nM] | IC50 (PC3 cells [2]) [nM]
22 | COc1cc(N2CC(N(C)C)C2)ccc1Nc1ncc(Cl)c(Oc2cccc3c2C(=O)N(C)C32CC2)n1 [Compound 159] | < 20 | 5 to 50 | > 2000
23 | COc1cc(N2CC(N3C4CCC3CN(C)C4)C2)ccc1Nc1ncc(Cl)c(Oc2cccc3c2C(=O)N(C)C32CC2)n1 [Compound 161] | < 20 | < 5 | > 2000
24 | COc1cc(N2CCC(N3CC4CC(C3)N4C)CC2)ccc1Nc1ncc(Cl)c(Oc2cccc3c2C(=O)N(C)C32CC2)n1 [Compound 163] | < 20 | 5 to 50 | > 2000
25 | COc1cc(N2C3CC2CN(C)C3)ccc1Nc1ncc(Cl)c(Oc2cccc3c2C(=O)N(C)C32CC2)n1 [Compound 164] | < 20 | 5 to 50 | > 2000
26 | COc1cc(N2CC3CC(C2)N3C)ccc1Nc1ncc(Cl)c(Oc2cccc3c2C(=O)N(C)C32CC2)n1 [Compound 165] | < 20 | 5 to 50 | > 2000
27 | COc1cc(N2C3CCC2CN(C)C3)ccc1Nc1ncc(Cl)c(Oc2cccc3c2C(=O)N(C)C32CC2)n1 [Compound 166] | < 20 | 5 to 50 | > 2000
28 | COc1cc(N2CCC3C(CCN3C)C2)ccc1Nc1ncc(Cl)c(Oc2cccc3c2C(=O)N(C)C32CC2)n1 (stereo not drawn) [Compound 167] | < 20 | 5 to 50 | > 2000
29 | COc1cc(N2CCC3CN(C)CCC32)ccc1Nc1ncc(Cl)c(Oc2cccc3c2C(=O)N(C)C32CC2)n1 (stereo not drawn) [Compound 168] | < 20 | < 5 | > 2000
30 | COc1cc(N2CC3CN(C)CC3C2)ccc1Nc1ncc(Cl)c(Oc2cccc3c2C(=O)N(C)C32CC2)n1 (stereo not drawn) [Compound 169] | < 20 | < 5 | > 2000
31 | COc1cc(N2CC3CCN(C)C3C2)ccc1Nc1ncc(Cl)c(Oc2cccc3c2C(=O)N(C)C32CC2)n1 (stereo not drawn) [Compound 170] | < 20 | 5 to 50 | > 2000
32 | COc1cc(N2CCC3CN(C)CC32)ccc1Nc1ncc(Cl)c(Oc2cccc3c2C(=O)N(C)C32CC2)n1 (stereo not drawn) [Compound 172] | < 20 | 5 to 50 | > 2000
33 | COc1cc(N2CCC3CN(C)CC3C2)ccc1Nc1ncc(Cl)c(Oc2cccc3c2C(=O)N(C)C32CC2)n1 (stereo not drawn) [Compound 173] | < 20 | < 5 | > 2000
34 | COc1cc(C(=O)NC2CCN(C)CC2)c(F)cc1Nc1ncc(Br)c(Oc2cccc3c2C(=O)N(C)C32CC2)n1 [Compound 174, 4-((5-bromo-4-((2′-methyl-3′-oxospiro[cyclopropane-1,1′-isoindolin]-4′-yl)oxy)pyrimidin-2-yl)amino)-2-fluoro-5-methoxy-N-(1-methylpiperidin-4-yl)benzamide] | < 20 | < 5 | > 2000
35 | COc1cc(C(=O)NC2CC3(CCN(C)CC3)C2)c(F)cc1Nc1ncc(Br)c(Oc2cccc3c2C(=O)N(C)C32CC2)n1 [Compound 175] | < 20 | < 5 | > 2000
36 | COc1cc(C(=O)NC2CC3(CCN(C)CC3)C2)ccc1Nc1ncc(Br)c(Oc2cccc3c2C(=O)N(C)C32CC2)n1 [Compound 176] | < 20 | < 5 | > 2000
37 | COc1cc(C2CCN(C)CC2)ccc1Nc1ncc(Br)c(Oc2cccc3c2C(=O)N(C)C32CC2)n1 [Compound 179] | < 20 | 5 to 50 | > 2000
38 | COc1cc(C2CCN(C)CC2)c(F)cc1Nc1ncc(Br)c(Oc2cccc3c2C(=O)N(C)C32CC2)n1 [Compound 180] | < 20 | 5 to 50 | > 2000
39 | COc1cc(N2CCC(N3CCN(C)CC3)CC2)c(F)cc1Nc1ncc(Br)c(Oc2cccc3c2C(=O)N(C)C32CC2)n1 [Compound 181] | < 20 | < 5 | > 2000
40 | COc1cc(N2CCC(N3CCN(C)CC3)CC2)ccc1Nc1ncc(Br)c(Oc2cccc3c2C(=O)N(C)C32CC2)n1 [Compound 182] | < 20 | < 5 | > 2000
41 | COc1cc(N2CCN(C)CC2)c(F)cc1Nc1ncc(Br)c(Oc2cccc3c2C(=O)N(C)C32CC2)n1 [Compound 183] | < 20 | 5 to 50 | > 2000
42 | COc1cc(N2CCN(C)CC2)ccc1Nc1ncc(Br)c(Oc2cccc3c2C(=O)N(C)C32CC2)n1 [Compound 184] | < 20 | 5 to 50 | > 2000
